Our source for the IC50 values is patent US20240208965A1, “HETEROARYL ALKYLENE SUBSTITUTED 2-OXOQUINAZOLINE DERIVATIVES AS METHIONINE ADENOSYLTRANSFERASE 2A INHIBITORS” (IDEAYA BIOSCIENCES, INC., priority 2020, published 2024).

SMILES strings stand for the structures.

The target of the experiment is T1, Human MAT2A (Homo sapiens, UniProt P31153).
T1 construct: Human MAT2A: Cepter, amino acids 1-395 Clone ID 334, lot 00023-148; purchased Cepter clone ID 334, lot 00023-148
T1 sequence (P31153 whole entry, the tested form may be a part): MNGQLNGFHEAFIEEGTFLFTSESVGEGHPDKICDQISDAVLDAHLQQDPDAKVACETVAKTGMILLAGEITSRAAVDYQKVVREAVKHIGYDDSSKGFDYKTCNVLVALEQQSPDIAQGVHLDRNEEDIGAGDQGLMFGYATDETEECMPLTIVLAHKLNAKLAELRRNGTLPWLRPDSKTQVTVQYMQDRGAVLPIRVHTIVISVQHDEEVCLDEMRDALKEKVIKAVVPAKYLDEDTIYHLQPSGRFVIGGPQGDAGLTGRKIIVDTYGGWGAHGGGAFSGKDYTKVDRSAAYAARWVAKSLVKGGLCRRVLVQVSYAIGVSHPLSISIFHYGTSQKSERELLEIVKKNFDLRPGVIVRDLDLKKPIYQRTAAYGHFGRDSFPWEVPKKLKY
As to the kind of experiment: Phosphate Sensor Fluorescence Assay (Biologic Example A). The format is biochemical. The conditions noted are these: MAT2A inhibition, Biological Example A procedure (Compounds 1.001-1.028); 500 uM L-methionine, 500 uM ATP. The protocol:
The ability of the compound of present disclosure to inhibit MAT2A enzyme was determined using a Phosphate Sensor Fluorescence Assay described below.
Biologic Example A. Phosphate Sensor Fluorescence Assay
MAT2A enzyme is incubated with a test compound in DMSO or DMSO and its substrates (L-methionine and ATP) in a microtiter plate. The enzymatic reaction is stopped by the addition of Working Phosphate Sensor Mixture. The plate is analyzed for fluorescence at 450 nm. The high control (DMSO with enzyme and its substrates) gives high fluorescence which represents no inhibition of enzymatic activity while the low control (DMSO with MAT2A substrates and no enzyme) gives low fluorescence which represents full inhibition of enzymatic activity.
• Human MAT2A: Cepter, amino acids 1-395 • Tris, pH 7.5: Invitrogen cat #15567-027 • KCl: Ambion cat #AM9640G • MgCl2: Ambion cat #AM9530G • Brij-35: Sigma cat B4184-10ML • DTT: Goldbio cat #DTT100 • BGG: Sigma cat #G5009-25G • PNP: Novus Biologicals cat #NBP1-50872 • 7-MEG: Cayman Chemical cat #15988 • L-Methionine: Alfa Aesar cat #J61904 • ATP: Alfa Aesar cat #J60336 • Phosphate Sensor: Thermo Fisher cat #PV4407 • EDTA: Life Tech cat #15575-038 • Assay plate: 384-well black polypropylene plate: Thomas Scientific cat #1149Q35
• Assay Buffer: 50 mM Tris, pH 7.5/50 mM KCl/10 mM MgCl2/0.01% Brij-35/1 mM DTT/0.1% BGG/40 nM PNP/6 uM 7-MEG • MAT2A: 10 nM for Cepter clone ID 329, lot 00023-123 before the addition of Working Phosphate Sensor Mixture • 5 nM for Cepter clone ID 334, lot 00023-148 before the addition of Working Phosphate Sensor Mixture • L-methionine: 500 uM before the addition of Working Phosphate Sensor Mixture • ATP: 500 uM before the addition of Working Phosphate Sensor Mixture
For the assay, a mixture of 1 mM L-methionine/1 mM ATP (2× final pre-stopped concentration) in assay buffer; MAT2A (2× final pre-stopped concentration) in Assay Buffer and Working Phosphate Sensor Mixture (1.5 uM Phosphate Sensor/30 mM EDTA in Assay Buffer, which is 3× final concentrations) were prepared. Test compounds or DMSO were added to the appropriate well suing D300e digital dispenser. 5 μl/well of Assay Buffer was added to the wells corresponding to the negative control and 5 μl/well of MAT2A was added to all the wells except for those corresponding to the negative control. After incubating the plate at room temperature for 15 minutes, 5 μl/well of the 1 mM L-methionine/1 mM ATP mixture was added to all wells. The plate was centrifuged at 1000 rpm for 1 minute and then incubated at room temperature for 1 hour. 5 μl of the Working Phosphate Sensor Mixture was added to all wells and the plate was centrifuged at 1000 rpm for 1 minute. The plate was read for fluorescence at 450 nm after exciting at 430 nm.
Percent inhibition was calculated in Chemical and Biological Information System (CBIS), (ChemInnovation Software Inc.). Curves were fitted by CBIS as % inhibition vs. log [compound concentration] using a 4-parameter inhibition model.
Fit=(A+((B−A)/(1+((C/x)^D))))
Compounds 1.001-1.028 were tested using the procedure described in Bioogical Example A, described above. Compounds 1.029-1.070 were tested using the procedure described in Biological Example B, described above.
For `CNc1nc(=O)n(Cc2c[nH]cn2)c2cc(C3CC3)ccc12` [1.004, 1-((1H-Imidazol-4-yl)methyl)-7-cyclopropyl-4-(methylamino)quinazolin-2(1H)-one], the concentration for half-maximal inhibition (IC50) (as a rule, the concentration that inhibits the measured activity by half) is 10 to 200 nM. For `CNc1nc(=O)n(Cc2c[nH]nn2)c2cc(C(F)(F)F)ccc12` [1.005, 1-((1H-1,2,3-triazol-4-yl)methyl)-4-(methylamino)-7-(trifluoromethyl)quinazolin-2(1H)-one] the value was 1000 to 10000 nM; for `CNc1nc(=O)n(Cc2c[nH]nn2)c2cc(C3CC3)ccc12` [1.006, 1-((1H-1,2,3-triazol-4-yl)methyl)-7-cyclopropyl-4-(methylamino)quinazolin-2(1H)-one], 1000 to 10000 nM; for `CNc1nc(=O)n(Cc2c[nH]c(C(F)(F)F)n2)c2cc(C(F)(F)F)ccc12` [1.010, 4-(methylamino)-7-(trifluoromethyl)-1-((2-(trifluoromethyl)-1H-imidazol-4-yl)methyl)quinazolin-2(1H)-one], 1000 to 10000 nM. For `CC(c1c[nH]cn1)n1c(=O)nc(N2CC[C@H](CO)C2)c2ccc(C(F)(F)F)cc21` (stereo partly drawn) [1.011, 1-(1-(1H-imidazol-4-yl)ethyl)-4-((S)-3-(hydroxymethyl)pyrrolidin-1-yl)-7-(trifluoromethyl)quinazolin-2(1H)-one] the value was 10 to 200 nM; for `CC(c1c[nH]cn1)n1c(=O)nc(N(C)C)c2ccc(C(F)(F)F)cc21` (stereo not shown) [1.015, 1-(1-(1H-imidazol-4-yl)ethyl)-4-(dimethylamino)-7-(trifluoromethyl)quinazolin-2(1H)-one], 10 to 200 nM; for `CC(c1c[nH]cn1)n1c(=O)nc(N)c2ccc(C(F)(F)F)cc21` (stereo not shown) [1.018, 1-(1-(1H-imidazol-4-yl)ethyl)-4-amino-7-(trifluoromethyl)quinazolin-2(1H)-one], 10 to 200 nM.
